Test results: ChEMBL document CHEMBL1201862, “PubChem BioAssay data set” (2004)
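Five compound concentrations were applied to cells in 96-well plates for 48 hours; endpoints were derived by simple linear interpolation of the resulting dose-response curve. At the GI50, growth is halved.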 Active and inactive are the calls of the source. Rule as the data show it: active = GI50 up to about 1.1 µM and inactive = higher.

Experiments:
Experiment in all cases: NCI-60 cell line screen, 48 h
[1] = tested on: HCT-15
[2] = tested on: CCRF-CEM
[3] = tested on: A549
[4] = tested on: IGROV-1
[5] = tested on: HT-29
[6] = tested on: MOLT-4
[7] = tested on: HCT-116
[8] = tested on: K562
[9] = tested on: OVCAR-5
[10] = tested on: CAKI-1
[11] = tested on: SF-295
[12] = tested on: EKVX
[13] = tested on: HOP-92
[14] = tested on: UO-31
[15] = tested on: UACC-62
[16] = tested on: M14
[17] = tested on: SK-MEL-28
[18] = tested on: OVCAR-3
[19] = tested on: OVCAR-4
[20] = tested on: NCI-H226

Row | SMILES | GI50 [1] | GI50 [2] | GI50 [3] | GI50 [4] | GI50 [5] | GI50 [6] | GI50 [7] | GI50 [8] | GI50 [9] | GI50 [10] | GI50 [11] | GI50 [12] | GI50 [13] | GI50 [14] | GI50 [15] | GI50 [16] | GI50 [17] | GI50 [18] | GI50 [19] | GI50 [20]
1 | COCCCNc1c2ccccc2nc2ccccc12 | 1.3 µM | 5.26 µM (inactive) | 2.92 µM (inactive) | 3.56 µM (inactive) | 2.82 µM (inactive) | 3.57 µM (inactive) | 2.59 µM (inactive) | 3.23 µM (inactive) | 2.17 µM (inactive) | 1.39 µM (inactive) | 3.61 µM (inactive) | 3.59 µM (inactive) | 3.58 µM (inactive) | 2.05 µM (inactive) | 2.18 µM (inactive) | 2.01 µM (inactive) | 2.44 µM (inactive) | 2.47 µM (inactive) | 2.64 µM (inactive) | 
2 | CCOC(=O)NC1C2CC(=O)C(O2)C1OCc1ccccc1 (configuration not stated) | > 100 µM | > 100 µM (inactive) | > 100 µM (inactive) | > 100 µM (inactive) | > 100 µM (inactive) | > 100 µM (inactive) |  | > 100 µM (inactive) | > 100 µM (inactive) | > 100 µM (inactive) | > 100 µM (inactive) |  | > 100 µM (inactive) | 78 µM (inactive) | > 100 µM (inactive) | > 100 µM (inactive) | > 100 µM (inactive) | > 100 µM (inactive) | > 100 µM (inactive) | > 100 µM (inactive)
3 | c1nc2nc[nH]c(SSc3[nH]cnc4ncnc3-4)c-2n1 | 0.925 µM | 0.202 µM (active) | 13.9 µM (inactive) | > 22.3 µM (inactive) | 1.19 µM (inactive) |  | 0.41 µM (active) | < 0.0472 µM (active) | 4.4 µM (inactive) |  | 0.127 µM (active) | 88.3 µM (inactive) | < 0.01 µM (active) |  | < 0.01 µM (active) | 1.21 µM (inactive) | 61.8 µM (inactive) | < 0.0442 µM (active) |  | 0.476 µM (active)
4 | O=C(N/N=C\C(F)(F)F)c1ccncc1 | 26.9 µM | 3.48 µM (inactive) |  | 35.2 µM (inactive) | 7.59 µM (inactive) | 21.4 µM (inactive) |  | 7.62 µM (inactive) | > 100 µM (inactive) | 42.8 µM (inactive) | 30.5 µM (inactive) |  | > 100 µM (inactive) | 83.6 µM (inactive) | 37.2 µM (inactive) | 26 µM (inactive) | 80.7 µM (inactive) | 22.3 µM (inactive) | > 100 µM (inactive) | 62.2 µM (inactive)
5 | COC(=O)C1[C@H](C(=O)OC)C1(Br)CBr (some centres not stated) | > 100 µM |  | > 100 µM (inactive) | > 100 µM (inactive) | > 100 µM (inactive) | 40.1 µM (inactive) | > 100 µM (inactive) | > 100 µM (inactive) | > 100 µM (inactive) | > 100 µM (inactive) | > 100 µM (inactive) | > 100 µM (inactive) | > 100 µM (inactive) | > 100 µM (inactive) | > 100 µM (inactive) | > 100 µM (inactive) | > 100 µM (inactive) | > 100 µM (inactive) | > 100 µM (inactive) | > 100 µM (inactive)
6 | CC(=O)/C(=C/n1c(=S)[nH]c2ccccc21)C(=O)Nc1ccccc1C | > 100 µM |  | > 100 µM (inactive) | > 100 µM (inactive) | > 100 µM (inactive) | > 100 µM (inactive) | > 100 µM (inactive) |  | > 100 µM (inactive) | > 100 µM (inactive) | > 100 µM (inactive) | > 100 µM (inactive) | > 100 µM (inactive) | > 100 µM (inactive) |  | > 100 µM (inactive) | > 100 µM (inactive) | > 100 µM (inactive) | > 100 µM (inactive) | > 100 µM (inactive)
7 | Cc1ccc(C(=O)C2CC3(CCC2(O)c2ccc(C)cc2)CC(=O)Nc2ccccc2C3=O)cc1 (configuration not stated) | > 100 µM | 5.66 µM (inactive) | > 100 µM (inactive) | > 100 µM (inactive) | > 100 µM (inactive) | 4.91 µM (inactive) | 62.7 µM (inactive) |  | > 100 µM (inactive) | > 100 µM (inactive) | 28.4 µM (inactive) | > 100 µM (inactive) | 19.4 µM (inactive) | > 100 µM (inactive) | > 100 µM (inactive) | 46.5 µM (inactive) | > 100 µM (inactive) | > 100 µM (inactive) |  | > 100 µM (inactive)
8 | Cc1cnc(SCCN2CCN(C)CC2)nc1-c1cc2ccccc2s1 | 10.5 µM | 3.18 µM (inactive) | 4.62 µM (inactive) | > 10 µM (inactive) | 6.03 µM (inactive) | 2.52 µM (inactive) | 11.4 µM (inactive) |  | > 10 µM (inactive) | 1.51 µM (inactive) | 9.14 µM (inactive) |  | 5.53 µM (inactive) | 7.78 µM (inactive) | 16.2 µM (inactive) | 13.2 µM (inactive) | 16.2 µM (inactive) | 5.98 µM (inactive) | 16.7 µM (inactive) | 11.9 µM (inactive)
